Measurements reported in patent publication US10906876B2, “Tetrahydroisoquinolines as selective NADPH oxidase 2 inhibitors” (University of Pittsburgh—Of the Commonwealth System of …, priority 2013, dated 2021).

Biological target: T1, Nox2 (Homo sapiens, UniProt P04839)
T1 construct: expressed in transfected cells
T1 sequence (P04839 2-570 limits assumed): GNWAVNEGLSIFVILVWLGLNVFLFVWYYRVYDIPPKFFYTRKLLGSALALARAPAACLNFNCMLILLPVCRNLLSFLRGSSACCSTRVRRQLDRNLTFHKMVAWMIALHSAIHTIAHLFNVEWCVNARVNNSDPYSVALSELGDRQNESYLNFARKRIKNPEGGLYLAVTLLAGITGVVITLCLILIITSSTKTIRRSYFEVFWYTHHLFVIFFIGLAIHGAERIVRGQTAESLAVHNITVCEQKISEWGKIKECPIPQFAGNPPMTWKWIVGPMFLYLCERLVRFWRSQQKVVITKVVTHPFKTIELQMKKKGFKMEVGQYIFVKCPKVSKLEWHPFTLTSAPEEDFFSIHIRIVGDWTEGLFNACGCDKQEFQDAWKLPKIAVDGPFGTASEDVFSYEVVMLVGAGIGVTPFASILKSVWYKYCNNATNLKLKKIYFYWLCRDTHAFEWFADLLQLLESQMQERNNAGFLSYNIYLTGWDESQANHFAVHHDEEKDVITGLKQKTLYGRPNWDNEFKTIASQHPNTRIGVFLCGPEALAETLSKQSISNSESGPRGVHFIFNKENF
Assay: ROS production of transiently Nox2-transfected Cos cells treated with PMA
Type: cell-based
Details: 10 μM compound
Experimental: Cell transfection was carried out using Lipofectamine LTX and Plus reagent (Invitrogen, Carlsbad, Calif., USA), according to the manufacturer's instructions. COS-22 cells were transiently co-transfected with pcDNA 3.1-hNox1, pCMVsport 6-hNOXA1 and pcDNA3.1-hNoxO1 (COS-Nox1/NOXO1/NOXA1 cells) or with pcDNA3.1/Hygro-hNox4 (COS-Nox4 cells). Cells were used 24 hr after transfection. Adherent cells were harvested by incubating with 0.05% trypsin/EDTA for 5 min at 37° C. Following addition of DMEM/10% FBS to neutralize the trypsin, the cells were pelleted by centrifugation at 1100×g for 5 min at 4° C. and used for the experiments.
Since p47^phox activation is important not only for Nox2 activity but also for Nox1 hybrid system present mainly in human endothelial cells, the effect of compounds 11g and 11h on ROS production of transiently Nox2-transfected (FIG. 13) or Nox1 hybrid system-transfected Cos cells (FIG. 14) treated with phorbol ester (PMA) was evaluated.

PMA-stimulated ROS production, Nox2-transfected Cos cells: inhibited
Structure (SMILES): C=C(C)CC1C2c3c(Br)cccc3C(CC2(C)C)N1CCCCC (racemic) [Compound 11g, (±)-(1S,4R,9S)-5-Bromo-3,3-dimethyl-9-(2-methylallyl-10-pentyl-1,2,3,4-tetrahydro-1,4-(epiminomethano)naphthalene]
